Results from PubChem BioAssay AID330 (DTP/NCI, 2004).
Toxic doses and inconclusive results are not listed.

Tested on: P388 leukemia ip, CD2F1 mice, survival T/C
Test: NCI In Vivo Anticancer Drug Screen. Data for tumor model P388 Leukemia (intraperitoneal) in CD2F1 (CDF1) mice
Conditions: endpoint: median survival time, higher = longer survival
Outline: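 Mice carrying the transplanted tumor received test compound or vehicle. Survival was recorded in each group, and the value is the treated-group measurement divided by that of the vehicle-treated control group.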

[1] = dose: 50.0 mg/kg/injection, schedule: Q01DX005 (ip), vehicle: saline with Tween-80
[2] = dose: 100.0 mg/kg/injection, schedule: Q01DX005 (ip), vehicle: saline with Tween-80
[3] = dose: 200.0 mg/kg/injection, schedule: Q01DX005 (ip), vehicle: saline with Tween-80
[4] = dose: 60.0 mg/kg/injection, schedule: Q01DX005 (ip), vehicle: saline with Tween-80
[5] = dose: 120.0 mg/kg/injection, schedule: Q01DX005 (ip), vehicle: saline with Tween-80
[6] = dose: 50.0 mg/kg/injection, schedule: Q01DX009 (ip), vehicle: saline with Tween-80
[7] = dose: 50.0 mg/kg/injection, schedule: Q01DX005 (ip), vehicle: Klucel (hydroxypropylcellulose) (HPC)
[8] = dose: 100.0 mg/kg/injection, schedule: Q01DX005 (ip), vehicle: Klucel (hydroxypropylcellulose) (HPC)
[9] = dose: 200.0 mg/kg/injection, schedule: Q01DX005 (ip), vehicle: Klucel (hydroxypropylcellulose) (HPC)

CCOC(=O)C1(C)C(=O)CC(c2ccccc2)CC1c1ccccc1 (stereo not drawn)
T/C [1]: 100 % of control | T/C [2]: 96 % of control | T/C [3]: 99 % of control

COC(=O)C(Cc1cnc[nH]1)NC(=O)C(Cc1c[nH]c2ccccc12)NC(=O)OC(C)(C)C (stereo not drawn)
T/C (dose: 12.5 mg/kg/injection, schedule: Q01DX009 (ip), vehicle: other): 100 % of control | T/C (dose: 25.0 mg/kg/injection, schedule: Q01DX009 (ip), vehicle: other): 96 % of control | T/C (dose: 50.0 mg/kg/injection, schedule: Q01DX009 (ip), vehicle: other): 96 % of control | T/C (dose: 100.0 mg/kg/injection, schedule: Q01DX009 (ip), vehicle: other): 95 % of control | T/C (dose: 200.0 mg/kg/injection, schedule: Q01DX009 (ip), vehicle: other): 91 % of control

CN(C)CCC(=O)C(=Cc1ccccc1Cl)C(=O)CCN(C)C
T/C (dose: 60.0 mg/kg/injection, schedule: Q01DX005 (ip), vehicle: saline): 105 % of control | T/C (dose: 120.0 mg/kg/injection, schedule: Q01DX005 (ip), vehicle: saline): 106 % of control | T/C (dose: 240.0 mg/kg/injection, schedule: Q01DX005 (ip), vehicle: saline): 105 % of control

CC(NNC(=S)N1CCN(c2ccccn2)CC1)c1cccc[n+]1[O-] (stereo not drawn)
T/C [1]: 103 % of control | T/C [2]: 100 % of control | T/C [3]: 91 % of control

CCOC(=O)N1c2ccccc2SC1C#N (stereo not drawn)
T/C [4]: 97 % of control | T/C [5]: 92 % of control | T/C (dose: 240.0 mg/kg/injection, schedule: Q01DX005 (ip), vehicle: saline with Tween-80): 105 % of control

CC(C)[NH-].CC(C)[NH-].[Cl][Pt+2]([Cl])([Cl])[Cl]
T/C (dose: 22.0 mg/kg/injection, schedule: Q01DX009 (ip), vehicle: saline with Tween-80): 155 % of control | T/C (dose: 33.0 mg/kg/injection, schedule: Q01DX009 (ip), vehicle: saline with Tween-80): 165 % of control | T/C [6]: 152 % of control

COC(=O)C1=[N+]([O-])[N+]([O-])=C(C(=O)OC)C1=O
T/C (dose: 12.5 mg/kg/injection, schedule: Q01DX009 (ip), vehicle: Klucel (hydroxypropylcellulose) (HPC)): 95 % of control | T/C (dose: 25.0 mg/kg/injection, schedule: Q01DX009 (ip), vehicle: Klucel (hydroxypropylcellulose) (HPC)): 94 % of control

C1=Nc2ccccc2OCCOc2ccccc2N=Cc2ccccc2NCCNc2ccccc21
T/C (dose: 100.0 mg/kg/injection, schedule: Q04DX003 (ip), vehicle: saline): 97 % of control | T/C (dose: 200.0 mg/kg/injection, schedule: Q04DX003 (ip), vehicle: saline): 100 % of control

CCCCCCCC/C=C\CCCCCCCCOC(N)=O
T/C (dose: 25.0 mg/kg/injection, schedule: Q04DX003 (ip), vehicle: other): 100 % of control | T/C (dose: 50.0 mg/kg/injection, schedule: Q04DX003 (ip), vehicle: other): 104 % of control | T/C (dose: 100.0 mg/kg/injection, schedule: Q04DX003 (ip), vehicle: other): 104 % of control

O=C1c2ccccc2C(=O)N1CCS(=O)(=O)Cl
T/C (dose: 12.5 mg/kg/injection, schedule: Q01DX009 (ip), vehicle: saline with Tween-80): 100 % of control | T/C (dose: 25.0 mg/kg/injection, schedule: Q01DX009 (ip), vehicle: saline with Tween-80): 106 % of control | T/C [6]: 114 % of control | T/C (dose: 100.0 mg/kg/injection, schedule: Q01DX009 (ip), vehicle: saline with Tween-80): 117 % of control

CCOC(=O)C1=C(C)NC(=O)NC1c1cccs1 (stereo not drawn)
T/C [7]: 98 % of control | T/C [8]: 96 % of control | T/C [9]: 97 % of control

O=C1OI(Cl)c2ccccc21
T/C [4]: 104 % of control | T/C [5]: 104 % of control

CC(NNC(=S)N1CC2CCC(CC2)C1)c1cccc[n+]1[O-] (stereo not drawn)
T/C [1]: 101 % of control | T/C [2]: 100 % of control | T/C [3]: 100 % of control

OC1CN(c2ccccc2)CC1O (stereo not drawn)
T/C [7]: 105 % of control | T/C [8]: 96 % of control | T/C [9]: 97 % of control

C=C1C(=O)OC2CC(C)CCC/C(CO)=C/C(OC(=O)/C(=C/CO)CO)C12 (stereo not drawn)
T/C (dose: 7.0 mg/kg/injection, schedule: Q01DX005 (ip), vehicle: saline): 98 % of control | T/C (dose: 14.0 mg/kg/injection, schedule: Q01DX005 (ip), vehicle: saline): 101 % of control | T/C (dose: 28.0 mg/kg/injection, schedule: Q01DX005 (ip), vehicle: saline): 114 % of control

O=C1OC(Cl)C(c2ccccc2)=C1c1ccccc1 (stereo not drawn)
T/C (dose: 100.0 mg/kg/injection, schedule: Q04DX002 (ip), vehicle: saline): 96 % of control | T/C (dose: 200.0 mg/kg/injection, schedule: Q04DX002 (ip), vehicle: saline): 98 % of control | T/C (dose: 400.0 mg/kg/injection, schedule: Q04DX002 (ip), vehicle: saline): 105 % of control
